9 compounds from ChEMBL document CHEMBL5500385, “Macrocyclization strategy for improving candidate profiles in medicinal chemistry” (Eur J Med Chem, 2024) can be followed below.

Data set [1] has as its target T1, Muscleblind-like protein 1 (Homo sapiens, UniProt Q9NR56).
T1 sequence (Q9NR56 whole entry): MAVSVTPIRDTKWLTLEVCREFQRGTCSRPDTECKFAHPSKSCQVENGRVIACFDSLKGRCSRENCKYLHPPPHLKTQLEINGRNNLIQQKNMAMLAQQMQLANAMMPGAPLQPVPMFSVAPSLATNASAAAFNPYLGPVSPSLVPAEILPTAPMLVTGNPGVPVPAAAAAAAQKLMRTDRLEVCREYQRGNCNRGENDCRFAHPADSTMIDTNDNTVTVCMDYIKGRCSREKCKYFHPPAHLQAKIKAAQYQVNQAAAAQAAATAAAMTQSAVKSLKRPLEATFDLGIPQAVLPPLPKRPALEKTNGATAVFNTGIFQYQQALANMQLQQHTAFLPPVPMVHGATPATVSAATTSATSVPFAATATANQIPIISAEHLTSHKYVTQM
Description: Binding affinity to MBNL1 (unknown origin) (1 to 272 residues) assessed as dissociation constant

In data set [2] the target is T2, Peptidyl-prolyl cis-trans isomerase FKBP4 (Homo sapiens, UniProt Q02790).
T2 sequence (Q02790 whole entry): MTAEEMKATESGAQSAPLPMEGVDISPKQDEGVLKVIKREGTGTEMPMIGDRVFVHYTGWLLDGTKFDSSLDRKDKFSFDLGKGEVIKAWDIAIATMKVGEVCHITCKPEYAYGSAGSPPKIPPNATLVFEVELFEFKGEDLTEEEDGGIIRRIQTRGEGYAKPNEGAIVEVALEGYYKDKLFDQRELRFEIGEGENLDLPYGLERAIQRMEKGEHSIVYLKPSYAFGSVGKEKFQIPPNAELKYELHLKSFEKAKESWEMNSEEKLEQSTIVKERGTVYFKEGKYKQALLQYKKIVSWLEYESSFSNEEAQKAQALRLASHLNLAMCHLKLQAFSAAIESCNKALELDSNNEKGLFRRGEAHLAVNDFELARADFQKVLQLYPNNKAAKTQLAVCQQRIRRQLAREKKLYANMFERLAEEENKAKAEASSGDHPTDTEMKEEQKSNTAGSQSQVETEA
Description: Binding affinity to FKBP52 (unknown origin) assessed as inhibition constant by fluorescence polarization assay

In data set [3] the target is T2, Peptidyl-prolyl cis-trans isomerase FKBP4. The source holds these as a separate data set.
Description: Binding affinity to FKBP52 (unknown origin) assessed as dissociation constant by fluorescence polarization assay
Data set [4] concerns the target T3, ATP-citrate synthase (Homo sapiens, UniProt P53396).
T3 sequence (P53396 whole entry): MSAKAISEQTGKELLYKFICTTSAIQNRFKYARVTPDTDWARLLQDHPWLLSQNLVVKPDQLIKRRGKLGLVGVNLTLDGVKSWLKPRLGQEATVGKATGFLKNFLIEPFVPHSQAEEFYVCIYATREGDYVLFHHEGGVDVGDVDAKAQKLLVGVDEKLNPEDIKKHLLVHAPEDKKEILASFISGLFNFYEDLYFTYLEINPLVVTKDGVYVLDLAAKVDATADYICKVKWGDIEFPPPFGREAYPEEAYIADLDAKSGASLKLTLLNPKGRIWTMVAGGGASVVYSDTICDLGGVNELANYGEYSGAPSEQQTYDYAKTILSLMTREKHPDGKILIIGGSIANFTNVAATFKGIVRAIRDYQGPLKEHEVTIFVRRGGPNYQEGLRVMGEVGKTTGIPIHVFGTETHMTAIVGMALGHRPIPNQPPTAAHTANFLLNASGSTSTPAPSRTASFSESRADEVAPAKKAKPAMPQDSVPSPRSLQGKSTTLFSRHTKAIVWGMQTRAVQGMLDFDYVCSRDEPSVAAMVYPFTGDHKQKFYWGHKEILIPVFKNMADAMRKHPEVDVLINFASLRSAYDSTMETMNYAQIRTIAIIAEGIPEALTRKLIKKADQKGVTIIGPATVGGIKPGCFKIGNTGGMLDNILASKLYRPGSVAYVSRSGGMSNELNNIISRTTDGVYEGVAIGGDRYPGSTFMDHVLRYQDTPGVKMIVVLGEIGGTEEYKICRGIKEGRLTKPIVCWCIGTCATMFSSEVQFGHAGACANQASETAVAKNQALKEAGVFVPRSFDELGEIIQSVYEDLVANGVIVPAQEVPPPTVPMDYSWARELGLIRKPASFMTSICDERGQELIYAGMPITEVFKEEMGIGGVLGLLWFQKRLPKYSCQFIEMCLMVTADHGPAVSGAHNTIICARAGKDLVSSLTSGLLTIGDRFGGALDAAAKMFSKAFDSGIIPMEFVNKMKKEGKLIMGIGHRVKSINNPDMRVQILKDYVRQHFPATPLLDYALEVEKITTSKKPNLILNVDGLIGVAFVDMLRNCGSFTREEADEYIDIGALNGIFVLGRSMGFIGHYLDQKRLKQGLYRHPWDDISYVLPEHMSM
Description: Inhibition of ATP citrate lyase (unknown origin)

In data set [5] the target is T3, ATP-citrate synthase. This is another data set of the same source.
Description: Binding affinity to ATP citrate lyase (unknown origin) assessed as dissociation constant
A further data set in a line: in vitro. As to conditions: human, liver microsomes. (Liver microsomes are a subcellular fraction often used to study metabolism.)
Data set [6] has as its target Tyrosine-protein kinase JAK2 (Homo sapiens, UniProt O60674).
Description: Inhibition of JAK2 (unknown origin)
Another data set concerns HEL. In words: cells. As to conditions: Homo sapiens.
Another data set relates to SET-2. The data set can be described thus: cells. As to conditions: Homo sapiens.
The target of a further data set is Plasminogen (Homo sapiens, UniProt P00747).
The next data set concerns the target Prothrombin (Homo sapiens, UniProt P00734).
In data set [7] the target is Calcitonin gene-related peptide type 1 receptor (Homo sapiens, UniProt O60894+Q16602).
Chain of Calcitonin gene-related peptide type 1 receptor (Q16602 whole entry, one chain of several): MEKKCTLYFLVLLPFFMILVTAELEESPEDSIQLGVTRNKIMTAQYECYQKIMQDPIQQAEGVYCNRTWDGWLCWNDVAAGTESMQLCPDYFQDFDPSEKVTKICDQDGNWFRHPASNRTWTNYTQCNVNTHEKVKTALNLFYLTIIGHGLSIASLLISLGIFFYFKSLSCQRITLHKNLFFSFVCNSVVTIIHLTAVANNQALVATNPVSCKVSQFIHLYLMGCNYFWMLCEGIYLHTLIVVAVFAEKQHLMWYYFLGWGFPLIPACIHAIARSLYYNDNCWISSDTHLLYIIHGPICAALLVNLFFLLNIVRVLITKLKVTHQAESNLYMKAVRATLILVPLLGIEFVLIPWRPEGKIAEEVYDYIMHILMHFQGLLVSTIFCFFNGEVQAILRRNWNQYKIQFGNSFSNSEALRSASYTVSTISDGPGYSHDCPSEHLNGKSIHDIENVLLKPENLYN
Description: Inhibition of CGRP (unknown origin)

Chain of Tyrosine-protein kinase JAK2 (O60674 whole entry): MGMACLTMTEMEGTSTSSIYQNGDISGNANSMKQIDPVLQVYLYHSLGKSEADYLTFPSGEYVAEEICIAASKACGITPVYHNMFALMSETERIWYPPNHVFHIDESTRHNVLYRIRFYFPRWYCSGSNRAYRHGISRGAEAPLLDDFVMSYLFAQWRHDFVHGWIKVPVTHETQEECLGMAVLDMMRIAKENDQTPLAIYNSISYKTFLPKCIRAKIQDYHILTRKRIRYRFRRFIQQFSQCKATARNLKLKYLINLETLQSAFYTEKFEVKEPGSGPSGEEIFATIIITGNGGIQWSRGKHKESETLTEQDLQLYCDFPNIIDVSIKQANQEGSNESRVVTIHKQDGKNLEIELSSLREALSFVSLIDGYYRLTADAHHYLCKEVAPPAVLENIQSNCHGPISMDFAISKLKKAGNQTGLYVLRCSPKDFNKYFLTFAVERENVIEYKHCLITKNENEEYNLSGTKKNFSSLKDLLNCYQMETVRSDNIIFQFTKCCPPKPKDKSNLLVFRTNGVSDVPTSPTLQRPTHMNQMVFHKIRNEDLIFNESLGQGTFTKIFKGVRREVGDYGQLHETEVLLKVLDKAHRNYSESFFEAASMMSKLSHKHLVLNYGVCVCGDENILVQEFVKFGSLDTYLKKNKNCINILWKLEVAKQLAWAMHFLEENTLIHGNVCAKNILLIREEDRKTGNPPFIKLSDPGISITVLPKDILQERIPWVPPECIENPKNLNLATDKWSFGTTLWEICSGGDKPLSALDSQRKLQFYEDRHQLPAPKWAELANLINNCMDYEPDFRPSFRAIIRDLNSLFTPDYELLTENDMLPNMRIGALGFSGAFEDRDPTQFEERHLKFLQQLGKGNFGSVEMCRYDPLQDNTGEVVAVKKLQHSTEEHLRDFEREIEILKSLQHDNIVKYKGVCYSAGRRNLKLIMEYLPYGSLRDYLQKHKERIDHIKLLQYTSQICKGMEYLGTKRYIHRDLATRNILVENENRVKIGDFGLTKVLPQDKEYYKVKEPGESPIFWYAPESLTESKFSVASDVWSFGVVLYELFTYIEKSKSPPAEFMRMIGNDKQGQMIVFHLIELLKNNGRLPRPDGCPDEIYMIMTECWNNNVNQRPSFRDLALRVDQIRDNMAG
Chain of Plasminogen (P00747 97-580 limits assumed): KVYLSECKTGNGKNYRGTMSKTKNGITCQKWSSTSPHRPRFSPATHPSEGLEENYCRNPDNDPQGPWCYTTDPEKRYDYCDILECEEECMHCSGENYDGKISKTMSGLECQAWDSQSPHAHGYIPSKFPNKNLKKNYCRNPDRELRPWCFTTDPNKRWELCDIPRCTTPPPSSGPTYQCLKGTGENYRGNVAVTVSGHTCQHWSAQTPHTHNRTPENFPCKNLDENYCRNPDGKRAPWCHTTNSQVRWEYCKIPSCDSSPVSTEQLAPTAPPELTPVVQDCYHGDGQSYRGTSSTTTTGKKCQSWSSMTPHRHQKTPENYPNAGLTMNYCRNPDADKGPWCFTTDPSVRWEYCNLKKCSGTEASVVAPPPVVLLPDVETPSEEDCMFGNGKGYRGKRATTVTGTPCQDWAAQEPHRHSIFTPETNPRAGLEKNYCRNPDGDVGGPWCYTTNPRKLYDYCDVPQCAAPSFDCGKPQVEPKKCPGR
Chain of Plasminogen (P00747 581-810 limits assumed): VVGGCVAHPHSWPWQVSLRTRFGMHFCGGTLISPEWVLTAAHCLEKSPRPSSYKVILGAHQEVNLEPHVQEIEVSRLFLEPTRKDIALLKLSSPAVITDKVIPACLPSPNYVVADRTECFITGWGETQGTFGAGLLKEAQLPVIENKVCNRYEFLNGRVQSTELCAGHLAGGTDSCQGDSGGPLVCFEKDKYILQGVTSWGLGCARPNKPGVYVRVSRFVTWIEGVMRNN
Description for HEL: Antiproliferative activity against human HEL cells assessed as reduction in cell growth
Description for Plasminogen: Binding affinity to plasmin (unknown origin) assessed as inhibition constant
Description for Prothrombin: Binding affinity to thrombin (unknown origin) assessed as inhibition constant
Description for SET-2: Antiproliferative activity against human SET2 cells assessed as reduction in cell viability

As a reminder, the Kd is the free concentration of one partner at which half of the binding sites on the other are occupied at equilibrium, for simple one-to-one binding. Higher therefore signals lower affinity. Turning to `COc1ccc2nc3cc(Cl)ccc3c(NCCCCNc3nc(N)nc(N)n3)c2c1`, the Kd in data set [1] was found to be 300 nM.

One may read the Ki as the equilibrium dissociation constant of an inhibitor or competing ligand from its target. Take `COc1ccc(CC[C@@H](OC(=O)[C@@H]2CCCCN2C(=O)[C@H](c2cc(OC)c(OC)c(OC)c2)C2CCCCC2)c2cccc(OCC(=O)O)c2)cc1OC`: in [2], the Ki was greater than 50000 nM.

In the case of `COc1ccc(CC[C@@H](OC(=O)[C@@H]2CCCCN2C(=O)[C@H](c2cc(OC)c(OC)c(OC)c2)C2CCCCC2)c2cccc(OCCN3CCOCC3)c2)cc1OC`, the inhibitory constant (Ki) in data set [2] was greater than 50000 nM.

As for `COc1cccc([C@@H](CCc2ccc(OC)c(OC)c2)OC(=O)[C@@H]2CCCCN2C(=O)[C@H](c2cc(OC)c(OC)c(OC)c2)C2CCCCC2)c1`, in data set [3], the dissociation constant Kd was greater than 10000 nM.

By IC50 is commonly meant the concentration that gives 50% inhibition. Broadly, the CLint scaled is a measure of how fast metabolising enzymes remove a compound, apart from limits set by blood flow. A high value points to rapid turnover. `COC(=O)c1cc(Cl)c(O)c(S(=O)(=O)Nc2cc(-c3ccccc3)c(F)cc2F)c1`: the 50% inhibitory concentration (IC50) against ATP-citrate synthase [4] is 44 nM. On ATP-citrate synthase [5], this compound had a Kd of 128 nM. For the same compound, in the data set “in vitro”, the CLint scaled worked out at 372 mL/min/kg.

Compound `O=C1NCc2ccccc2-c2cc(c(F)cc2F)NS(=O)(=O)c2cc1cc(Cl)c2O` came in with an intrinsic metabolic clearance (CLint scaled) in “in vitro” of 3.27 mL/min/kg.

Take `Cc1cnc2nc1Nc1cccc(c1)COC/C=C/COCc1cc(ccc1OCCN1CCCC1)N2`: the 50% inhibitory concentration (IC50) in [6] came out at 6 nM; in the data set with HEL it was 3060 nM; with SET-2, 11100 nM.

For `N=C(N)c1ccc(CNC(=O)[C@H](Cc2cccc(C(=N)N)c2)NC(=O)[C@@H](CCCc2ccccc2)NS(=O)(=O)Cc2cccc(C(=O)O)c2)cc1`, the inhibitory constant (Ki) amounted to 0.81 nM on Plasminogen and 667 nM at Prothrombin.

As for `Cc1cc(C[C@@H](NC(=O)c2cnc3c(c2)C[C@@]2(C3)C(=O)Nc3ncccc32)C(=O)N(C)C)cc2cn[nH]c12`, the half-inhibitory concentration (IC50) in [7] came to 10 nM.
